Data taken from patent US4349685A (priority 1981, dated 1982).

Tests used:
[1] = system: causative organism of wheat leaf rust; assay: Control of wheat leaf rust by aqueous suspension of the compound; format: in vivo; conditions: 300 parts per million by weight, sole compound
[2] = system: causative organism of downey mildew; assay: Control of downey mildew on host plants (root drench and foliar treatment); format: in vivo; conditions: 500 parts per million by weight solution; root system application and foliar treatment of host plants
Text: Solutions containing 500 parts per million by weight of the compound were formulated and applied to the host plants through two different modes of administration. First, the solution was applied to the root system of the host plants by drenching the chemicals into the pots or by placing the pots into larger cups containing the solution of the compound. Second, a foliar chemical treatment was applied to the host plants. The plants were then exposed to the pathogen and placed under conditions suitable for infection and development of the disease.

Row | Compound | kill of the causative organism of wheat leaf rust [1] | control of the causative organism of downey mildew [2] [%]
1 | CCC(=O)OCCNC(=O)Oc1ccc2oc(=O)sc2c1 [Example 1, 5-[2-(Propionyloxy)ethylcarbamoyloxy]-1,3-benzoxathiol-2-one] | substantially complete kill | 
2 | CCc1cccc(NC(=O)Oc2ccc3oc(=O)sc3c2)c1 [Example 4, 5-[(3-Ethylphenyl)carbamoyloxy]-1,3-benzoxathiol-2-one] |  | 90
